ChEMBL document CHEMBL3991601, “The target landscape of clinical kinase drugs” (Science, 2017)
The source made the active and inactive calls. Cut-off read from the data, not from the text of the source, for most assays here: actives have a measured Kd and inactives only a lower limit.

Columns and labels:
[1] = biological target: Ribosomal protein S6 kinase alpha-4 (Homo sapiens, UniProt O75676)
[2] = biological target: Non-receptor tyrosine-protein kinase TYK2 (Homo sapiens, UniProt P29597)
[3] = biological target: T1, EKC/KEOPS complex subunit TP53RK (Homo sapiens, UniProt Q96S44)
T1 sequence (Q96S44 whole entry): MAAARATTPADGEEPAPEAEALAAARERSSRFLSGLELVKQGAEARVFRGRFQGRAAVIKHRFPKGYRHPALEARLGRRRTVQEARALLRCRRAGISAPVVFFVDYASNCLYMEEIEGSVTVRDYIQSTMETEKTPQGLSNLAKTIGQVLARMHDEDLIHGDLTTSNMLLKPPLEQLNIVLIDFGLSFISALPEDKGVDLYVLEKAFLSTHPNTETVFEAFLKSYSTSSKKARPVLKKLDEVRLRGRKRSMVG

[4] = biological target: Aurora kinase B (Homo sapiens, UniProt Q96GD4)
Sequence of Aurora kinase B (Q96GD4 whole entry): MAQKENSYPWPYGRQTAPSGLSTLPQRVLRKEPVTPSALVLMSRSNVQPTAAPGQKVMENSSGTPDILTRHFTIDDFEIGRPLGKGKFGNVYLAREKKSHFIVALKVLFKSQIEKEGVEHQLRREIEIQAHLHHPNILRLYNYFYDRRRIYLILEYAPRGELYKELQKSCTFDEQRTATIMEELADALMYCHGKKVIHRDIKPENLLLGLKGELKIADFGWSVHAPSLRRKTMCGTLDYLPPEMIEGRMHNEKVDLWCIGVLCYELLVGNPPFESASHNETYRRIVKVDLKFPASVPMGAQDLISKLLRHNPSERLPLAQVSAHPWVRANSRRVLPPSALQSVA

[5] = biological target: T2, Non-receptor tyrosine-protein kinase TNK1 (Homo sapiens, UniProt Q13470)
T2 sequence (Q13470 whole entry): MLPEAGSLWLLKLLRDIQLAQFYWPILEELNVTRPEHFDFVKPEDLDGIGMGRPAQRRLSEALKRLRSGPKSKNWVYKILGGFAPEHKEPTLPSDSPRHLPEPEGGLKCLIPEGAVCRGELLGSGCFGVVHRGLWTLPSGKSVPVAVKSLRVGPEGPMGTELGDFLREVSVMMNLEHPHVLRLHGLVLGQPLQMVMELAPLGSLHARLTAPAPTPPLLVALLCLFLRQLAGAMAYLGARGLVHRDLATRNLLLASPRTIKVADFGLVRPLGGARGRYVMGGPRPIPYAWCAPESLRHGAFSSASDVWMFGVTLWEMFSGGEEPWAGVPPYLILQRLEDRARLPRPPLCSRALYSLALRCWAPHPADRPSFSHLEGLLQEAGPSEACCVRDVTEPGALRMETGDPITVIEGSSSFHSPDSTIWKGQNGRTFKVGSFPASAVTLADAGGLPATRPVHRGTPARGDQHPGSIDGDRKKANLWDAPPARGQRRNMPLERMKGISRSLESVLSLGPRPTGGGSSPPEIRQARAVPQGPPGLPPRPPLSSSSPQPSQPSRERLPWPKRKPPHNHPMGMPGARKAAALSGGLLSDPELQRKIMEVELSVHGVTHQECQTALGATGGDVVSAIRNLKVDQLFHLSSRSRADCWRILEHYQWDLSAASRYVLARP

[6] = biological target: T3, Serine/threonine-protein kinase Nek3 (Homo sapiens, UniProt P51956)
T3 sequence (P51956 whole entry): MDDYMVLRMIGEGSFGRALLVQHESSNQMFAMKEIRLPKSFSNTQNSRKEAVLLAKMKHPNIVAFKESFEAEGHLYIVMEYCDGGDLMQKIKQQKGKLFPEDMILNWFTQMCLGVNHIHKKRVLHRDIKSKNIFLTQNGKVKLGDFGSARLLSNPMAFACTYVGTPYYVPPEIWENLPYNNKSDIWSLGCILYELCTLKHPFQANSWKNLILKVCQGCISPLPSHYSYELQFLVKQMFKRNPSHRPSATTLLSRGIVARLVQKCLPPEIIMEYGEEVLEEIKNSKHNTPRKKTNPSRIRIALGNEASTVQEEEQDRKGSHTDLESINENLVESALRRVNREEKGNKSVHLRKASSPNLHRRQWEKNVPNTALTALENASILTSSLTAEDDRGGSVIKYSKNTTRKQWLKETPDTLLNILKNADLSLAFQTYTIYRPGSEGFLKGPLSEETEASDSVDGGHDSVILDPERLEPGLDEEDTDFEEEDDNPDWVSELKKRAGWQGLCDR

[7] = biological target: Ephrin type-A receptor 4 (Homo sapiens, UniProt P54764)
[8] = biological target: Calcium/calmodulin-dependent protein kinase kinase 2 (Homo sapiens, UniProt Q96RR4)
Sequence of Calcium/calmodulin-dependent protein kinase kinase 2 (Q96RR4 whole entry): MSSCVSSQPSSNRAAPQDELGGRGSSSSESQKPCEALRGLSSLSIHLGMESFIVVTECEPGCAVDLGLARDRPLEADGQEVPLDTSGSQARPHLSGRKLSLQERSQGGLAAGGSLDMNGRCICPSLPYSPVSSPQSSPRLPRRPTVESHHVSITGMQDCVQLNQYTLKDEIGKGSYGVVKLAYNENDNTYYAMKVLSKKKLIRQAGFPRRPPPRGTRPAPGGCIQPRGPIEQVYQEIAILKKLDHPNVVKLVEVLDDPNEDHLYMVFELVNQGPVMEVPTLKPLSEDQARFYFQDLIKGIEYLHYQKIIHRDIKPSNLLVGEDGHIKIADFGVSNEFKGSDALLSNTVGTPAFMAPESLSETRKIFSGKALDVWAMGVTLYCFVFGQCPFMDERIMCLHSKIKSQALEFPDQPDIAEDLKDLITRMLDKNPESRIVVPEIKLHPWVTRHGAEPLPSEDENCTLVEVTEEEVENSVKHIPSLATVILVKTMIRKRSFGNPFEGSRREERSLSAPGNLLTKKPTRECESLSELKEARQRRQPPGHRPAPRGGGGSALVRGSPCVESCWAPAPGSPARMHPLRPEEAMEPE

[9] = biological target: Mitogen-activated protein kinase 7 (Homo sapiens, UniProt Q13164)
[10] = biological target: T4, ADP/ATP translocase 2 (Homo sapiens, UniProt P05141)
T4 sequence (P05141 whole entry): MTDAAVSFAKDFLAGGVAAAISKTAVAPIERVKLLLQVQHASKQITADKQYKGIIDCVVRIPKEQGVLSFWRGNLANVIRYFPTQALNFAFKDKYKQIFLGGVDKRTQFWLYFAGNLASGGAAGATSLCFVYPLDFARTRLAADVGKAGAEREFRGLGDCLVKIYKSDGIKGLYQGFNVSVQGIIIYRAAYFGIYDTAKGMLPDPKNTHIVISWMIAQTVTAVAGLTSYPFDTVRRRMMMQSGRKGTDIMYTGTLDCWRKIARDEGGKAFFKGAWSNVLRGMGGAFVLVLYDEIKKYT

[11] = biological target: Tyrosine-protein kinase Fyn (Homo sapiens, UniProt P06241)
Sequence of Tyrosine-protein kinase Fyn (P06241 whole entry): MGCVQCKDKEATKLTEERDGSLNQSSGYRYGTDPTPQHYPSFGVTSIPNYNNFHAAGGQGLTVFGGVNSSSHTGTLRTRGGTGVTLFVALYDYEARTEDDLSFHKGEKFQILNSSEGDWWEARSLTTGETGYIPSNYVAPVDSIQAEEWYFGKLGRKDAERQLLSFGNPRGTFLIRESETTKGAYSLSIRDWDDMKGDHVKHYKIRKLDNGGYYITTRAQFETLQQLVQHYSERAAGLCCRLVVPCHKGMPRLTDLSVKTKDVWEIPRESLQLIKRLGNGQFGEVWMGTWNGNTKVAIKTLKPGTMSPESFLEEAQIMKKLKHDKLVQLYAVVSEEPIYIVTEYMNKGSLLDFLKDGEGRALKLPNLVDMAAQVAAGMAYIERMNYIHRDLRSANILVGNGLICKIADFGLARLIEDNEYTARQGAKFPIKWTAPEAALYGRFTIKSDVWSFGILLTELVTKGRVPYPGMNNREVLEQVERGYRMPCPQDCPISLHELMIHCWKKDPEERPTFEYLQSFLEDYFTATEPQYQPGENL

[12] = biological target: Ribosomal protein S6 kinase beta-1 (Homo sapiens, UniProt P23443)
[13] = biological target: Mitogen-activated protein kinase kinase kinase kinase 5 (Homo sapiens, UniProt Q9Y4K4)
Sequence of Mitogen-activated protein kinase kinase kinase kinase 5 (Q9Y4K4 whole entry): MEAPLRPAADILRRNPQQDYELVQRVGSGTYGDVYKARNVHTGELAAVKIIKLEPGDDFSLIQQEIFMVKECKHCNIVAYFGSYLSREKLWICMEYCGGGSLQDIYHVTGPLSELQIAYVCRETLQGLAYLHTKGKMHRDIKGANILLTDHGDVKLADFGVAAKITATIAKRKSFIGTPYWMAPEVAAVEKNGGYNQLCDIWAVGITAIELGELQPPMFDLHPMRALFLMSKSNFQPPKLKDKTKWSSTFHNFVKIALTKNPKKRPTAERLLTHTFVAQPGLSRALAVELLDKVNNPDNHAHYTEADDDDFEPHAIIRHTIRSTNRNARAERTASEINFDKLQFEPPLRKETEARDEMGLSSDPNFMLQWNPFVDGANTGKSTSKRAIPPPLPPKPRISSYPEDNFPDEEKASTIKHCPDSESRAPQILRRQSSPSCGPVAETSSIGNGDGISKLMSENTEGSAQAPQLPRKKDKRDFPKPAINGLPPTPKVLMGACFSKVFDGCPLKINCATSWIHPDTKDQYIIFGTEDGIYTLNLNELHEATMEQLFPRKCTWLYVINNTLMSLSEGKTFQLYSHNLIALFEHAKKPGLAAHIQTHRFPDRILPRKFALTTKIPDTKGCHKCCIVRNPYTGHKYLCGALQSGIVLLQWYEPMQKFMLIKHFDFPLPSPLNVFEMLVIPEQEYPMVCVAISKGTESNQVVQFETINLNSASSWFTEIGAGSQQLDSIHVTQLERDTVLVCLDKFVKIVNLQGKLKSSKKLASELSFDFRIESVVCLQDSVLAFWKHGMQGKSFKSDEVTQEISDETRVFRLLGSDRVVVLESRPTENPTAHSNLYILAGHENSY

[14] = biological target: T5, Adenine phosphoribosyltransferase (Homo sapiens, UniProt P07741)
T5 sequence (P07741 whole entry): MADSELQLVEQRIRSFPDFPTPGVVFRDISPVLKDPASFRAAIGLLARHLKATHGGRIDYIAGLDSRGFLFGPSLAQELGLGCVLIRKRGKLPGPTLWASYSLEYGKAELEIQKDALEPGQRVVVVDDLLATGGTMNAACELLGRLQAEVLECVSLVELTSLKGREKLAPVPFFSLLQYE

[15] = biological target: STE20-like serine/threonine-protein kinase (Homo sapiens, UniProt Q9H2G2)
[16] = biological target: Ribosomal protein S6 kinase alpha-1 (Homo sapiens, UniProt Q15418)
Sequence of Ribosomal protein S6 kinase alpha-1 (Q15418 whole entry): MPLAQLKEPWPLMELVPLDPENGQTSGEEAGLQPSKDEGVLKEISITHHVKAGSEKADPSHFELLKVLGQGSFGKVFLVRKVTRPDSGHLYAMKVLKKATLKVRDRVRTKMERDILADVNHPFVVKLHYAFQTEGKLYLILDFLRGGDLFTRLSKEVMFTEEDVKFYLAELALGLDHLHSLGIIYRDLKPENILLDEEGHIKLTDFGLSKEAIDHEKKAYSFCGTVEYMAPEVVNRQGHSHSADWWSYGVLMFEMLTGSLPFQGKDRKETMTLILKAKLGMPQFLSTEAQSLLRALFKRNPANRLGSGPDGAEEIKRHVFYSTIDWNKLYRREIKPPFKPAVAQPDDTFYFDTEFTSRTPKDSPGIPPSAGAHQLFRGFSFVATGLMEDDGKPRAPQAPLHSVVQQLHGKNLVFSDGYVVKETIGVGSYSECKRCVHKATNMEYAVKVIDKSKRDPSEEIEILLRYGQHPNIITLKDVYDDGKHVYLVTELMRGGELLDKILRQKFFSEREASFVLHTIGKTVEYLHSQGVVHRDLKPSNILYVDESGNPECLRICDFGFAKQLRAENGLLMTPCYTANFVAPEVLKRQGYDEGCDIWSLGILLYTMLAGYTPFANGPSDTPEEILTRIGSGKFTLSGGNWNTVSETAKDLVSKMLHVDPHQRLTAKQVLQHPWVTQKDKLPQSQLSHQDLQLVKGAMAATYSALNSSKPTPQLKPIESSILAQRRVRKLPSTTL
Note: in the data inactive means no Kd found up to 30 µM.

Sequence of Non-receptor tyrosine-protein kinase TYK2 (P29597 whole entry): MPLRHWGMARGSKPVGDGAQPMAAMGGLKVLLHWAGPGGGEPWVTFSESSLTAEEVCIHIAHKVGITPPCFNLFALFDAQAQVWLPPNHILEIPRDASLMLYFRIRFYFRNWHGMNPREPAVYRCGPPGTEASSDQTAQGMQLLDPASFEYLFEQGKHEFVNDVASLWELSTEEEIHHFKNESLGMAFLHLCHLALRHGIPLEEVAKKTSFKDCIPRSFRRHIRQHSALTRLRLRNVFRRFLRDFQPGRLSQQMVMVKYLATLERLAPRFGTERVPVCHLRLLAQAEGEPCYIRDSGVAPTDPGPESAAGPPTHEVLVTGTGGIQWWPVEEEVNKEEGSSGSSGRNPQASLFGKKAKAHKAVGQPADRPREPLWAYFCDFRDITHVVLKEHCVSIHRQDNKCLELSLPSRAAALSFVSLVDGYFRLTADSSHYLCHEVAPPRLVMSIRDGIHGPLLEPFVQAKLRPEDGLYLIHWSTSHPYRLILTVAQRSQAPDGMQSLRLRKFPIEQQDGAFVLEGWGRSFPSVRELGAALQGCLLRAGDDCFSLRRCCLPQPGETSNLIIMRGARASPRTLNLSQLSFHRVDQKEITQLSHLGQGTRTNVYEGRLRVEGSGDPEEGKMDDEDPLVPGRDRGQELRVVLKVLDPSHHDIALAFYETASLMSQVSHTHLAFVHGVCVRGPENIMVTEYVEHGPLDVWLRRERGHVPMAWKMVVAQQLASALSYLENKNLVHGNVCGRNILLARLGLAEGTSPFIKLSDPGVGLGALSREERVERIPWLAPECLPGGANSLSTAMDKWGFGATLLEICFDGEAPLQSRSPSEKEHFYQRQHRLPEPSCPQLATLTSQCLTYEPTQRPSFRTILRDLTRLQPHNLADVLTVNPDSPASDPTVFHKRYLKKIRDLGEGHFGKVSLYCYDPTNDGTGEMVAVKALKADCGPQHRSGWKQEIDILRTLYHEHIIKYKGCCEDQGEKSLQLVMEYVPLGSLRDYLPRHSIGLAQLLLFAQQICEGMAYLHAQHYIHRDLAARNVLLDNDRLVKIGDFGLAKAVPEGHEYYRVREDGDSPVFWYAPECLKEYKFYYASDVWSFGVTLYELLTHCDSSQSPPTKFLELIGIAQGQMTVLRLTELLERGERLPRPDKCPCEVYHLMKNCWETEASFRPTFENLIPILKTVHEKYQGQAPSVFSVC
Sequence of Ribosomal protein S6 kinase alpha-4 (O75676 whole entry): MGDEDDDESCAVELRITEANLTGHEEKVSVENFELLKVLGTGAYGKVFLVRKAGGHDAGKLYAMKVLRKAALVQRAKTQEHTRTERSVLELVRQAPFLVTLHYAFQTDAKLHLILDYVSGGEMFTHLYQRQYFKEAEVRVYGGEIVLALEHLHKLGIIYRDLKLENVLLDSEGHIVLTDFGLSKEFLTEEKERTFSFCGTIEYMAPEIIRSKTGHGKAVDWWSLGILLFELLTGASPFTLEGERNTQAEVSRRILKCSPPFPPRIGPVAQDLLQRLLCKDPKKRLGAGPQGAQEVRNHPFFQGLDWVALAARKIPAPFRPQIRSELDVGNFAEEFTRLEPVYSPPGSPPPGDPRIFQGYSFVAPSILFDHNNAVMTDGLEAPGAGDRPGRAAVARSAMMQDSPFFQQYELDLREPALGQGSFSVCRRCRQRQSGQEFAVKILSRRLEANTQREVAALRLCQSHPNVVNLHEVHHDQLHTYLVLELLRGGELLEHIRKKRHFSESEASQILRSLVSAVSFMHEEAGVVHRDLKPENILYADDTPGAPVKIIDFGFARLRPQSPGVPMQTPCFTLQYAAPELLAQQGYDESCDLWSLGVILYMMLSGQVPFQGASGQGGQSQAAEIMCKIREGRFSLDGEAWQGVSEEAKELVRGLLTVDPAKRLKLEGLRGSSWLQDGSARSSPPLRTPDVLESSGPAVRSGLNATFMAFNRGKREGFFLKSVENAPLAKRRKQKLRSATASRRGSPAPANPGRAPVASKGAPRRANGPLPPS

| Structure (SMILES) | Kd [1] | Kd [2] | Kd [3] | Kd [4] | Kd [5] | Kd [6] | Kd [7] | Kd [8] | Kd [9] | Kd [10] | Kd [11] | Kd [12] | Kd [13] | Kd [14] | Kd [15] | Kd [16] |
| --- | --- | --- | --- | --- | --- | --- | --- | --- | --- | --- | --- | --- | --- | --- | --- | --- |
| C#Cc1cccc(Nc2ncnc3cc4c(cc23)OCCOCCOCCO4)c1 [ICOTINIB] | > 30 µM (inactive) | > 30 µM (inactive) | > 30 µM (inactive) | > 30 µM (inactive) | > 30 µM (inactive) | > 30 µM (inactive) | > 30 µM (inactive) | > 30 µM (inactive) | > 30 µM (inactive) | > 30 µM (inactive) | > 30 µM (inactive) | > 30 µM (inactive) | > 30 µM (inactive) | > 30 µM (inactive) | 1.05 µM (active) | > 30 µM (inactive) |
| COc1cc2ncnc(Nc3ccc(O)cc3)c2cc1OC [WHI-P131] | > 30 µM (inactive) | > 30 µM (inactive) | > 30 µM (inactive) | > 30 µM (inactive) | > 30 µM (inactive) | > 30 µM (inactive) | > 30 µM (inactive) | > 30 µM (inactive) | > 30 µM (inactive) | > 30 µM (inactive) | > 30 µM (inactive) | > 30 µM (inactive) | > 30 µM (inactive) | > 30 µM (inactive) | 4.37 µM (active) | > 30 µM (inactive) |
| C=CC(=O)Nc1cc(Nc2nccc(-c3cn(C)c4ccccc34)n2)c(OC)cc1N(C)CCN(C)C [OSIMERTINIB] | > 30 µM (inactive) | > 30 µM (inactive) | > 30 µM (inactive) | > 30 µM (inactive) | > 30 µM (inactive) | > 30 µM (inactive) | > 30 µM (inactive) | > 30 µM (inactive) | > 30 µM (inactive) | > 30 µM (inactive) | > 30 µM (inactive) | > 30 µM (inactive) | > 30 µM (inactive) | > 30 µM (inactive) | > 30 µM (inactive) | > 30 µM (inactive) |
| COc1ccc2c(OCc3nnc4ccc(-c5ccccc5)nn34)ccnc2c1 [AMG-208] | > 30 µM (inactive) | > 30 µM (inactive) | > 30 µM (inactive) | > 30 µM (inactive) | > 30 µM (inactive) | > 30 µM (inactive) | > 30 µM (inactive) | > 30 µM (inactive) | > 30 µM (inactive) | > 30 µM (inactive) | > 30 µM (inactive) | > 30 µM (inactive) | > 30 µM (inactive) | > 30 µM (inactive) | > 30 µM (inactive) | > 30 µM (inactive) |
| CC1(COc2ccc3c(c2)ncn3-c2ccc3cccc(N4CCC(N)CC4)c3n2)COC1 [CRENOLANIB] | > 30 µM (inactive) | > 30 µM (inactive) | > 30 µM (inactive) | > 30 µM (inactive) | > 30 µM (inactive) | > 30 µM (inactive) | > 30 µM (inactive) | 0.135 µM (active) | > 30 µM (inactive) | > 30 µM (inactive) | > 30 µM (inactive) | > 30 µM (inactive) | 0.455 µM (active) | 0.029 µM | > 30 µM (inactive) | > 30 µM (inactive) |
| COc1cccc2cc(-c3nc([C@H]4CC[C@H](C(=O)O)CC4)n4ncnc(N)c34)[nH]c12 [OSI-027] | > 30 µM (inactive) | > 30 µM (inactive) | > 30 µM (inactive) | > 30 µM (inactive) | > 30 µM (inactive) | > 30 µM (inactive) | > 30 µM (inactive) | > 30 µM (inactive) | > 30 µM (inactive) | > 30 µM (inactive) | > 30 µM (inactive) | > 30 µM (inactive) | > 30 µM (inactive) | > 30 µM (inactive) | > 30 µM (inactive) | > 30 µM (inactive) |
| O=C(NC[C@H](O)CO)c1ccncc1Nc1ccc(I)cc1F [PIMASERTIB] | > 30 µM (inactive) | > 30 µM (inactive) | > 30 µM (inactive) | > 30 µM (inactive) | > 30 µM (inactive) | > 30 µM (inactive) | > 30 µM (inactive) | > 30 µM (inactive) | > 30 µM (inactive) | > 30 µM (inactive) | > 30 µM (inactive) | > 30 µM (inactive) | > 30 µM (inactive) | > 30 µM (inactive) | > 30 µM (inactive) | > 30 µM (inactive) |
| c1cc(OCCN2CCCCC2)cc(-c2n[nH]c3ccc(-c4nc[nH]n4)cc23)c1 [CC-401] | > 30 µM (inactive) | > 30 µM (inactive) | > 30 µM (inactive) | > 30 µM (inactive) | > 30 µM (inactive) | > 30 µM (inactive) | > 30 µM (inactive) | > 30 µM (inactive) | > 30 µM (inactive) | > 30 µM (inactive) | > 30 µM (inactive) | > 30 µM (inactive) | > 30 µM (inactive) | > 30 µM (inactive) | > 30 µM (inactive) | > 30 µM (inactive) |
| COc1ccc(-c2ccc3ncc4c(c3c2)n(-c2ccc(N3CCNCC3)c(C(F)(F)F)c2)c(=O)n4C)cn1 [BGT-226 FREE BASE] | > 30 µM (inactive) | > 30 µM (inactive) | 1.01 µM (active) | > 30 µM (inactive) | > 30 µM (inactive) | > 30 µM (inactive) | > 30 µM (inactive) | > 30 µM (inactive) | > 30 µM (inactive) | > 30 µM (inactive) | > 30 µM (inactive) | > 30 µM (inactive) | > 30 µM (inactive) | > 30 µM (inactive) | > 30 µM (inactive) | > 30 µM (inactive) |
| O=S(=O)(c1cccc2c(O)nccc12)N1CCCNCC1 [HYDROXYFASUDIL] | > 30 µM (inactive) | > 30 µM (inactive) | > 30 µM (inactive) | > 30 µM (inactive) | > 30 µM (inactive) | > 30 µM (inactive) | > 30 µM (inactive) | > 30 µM (inactive) | > 30 µM (inactive) | > 30 µM (inactive) | > 30 µM (inactive) | > 30 µM (inactive) | > 30 µM (inactive) | > 30 µM (inactive) | > 30 µM (inactive) | > 30 µM (inactive) |
